Where a name gives a salt, the structure may show the parent alone.
Assays:
human JAK1 = biological target: T1, human JAK1 (Homo sapiens, UniProt P23458); assay: In Vitro JAK Kinase Assay (HTRF, phosphorylation of a biotinylated peptide), JAK1; assay type: biochemical; settings: catalytic domain a.a. 837-1142, assay of Example A
T1 construct: human JAK1 (a.a. 837-1142); His tag (N); made in house; host or cells: insect cells (baculovirus)
Procedure, shortened: (§1)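 HTRF detection (SA-APC plus Eu-labeled anti-phosphotyrosine Py20, 40 min after EDTA stop) quantified biotinylated-peptide phosphorylation. Kinase reactions with human JAK1 or JAK2 catalytic domains lasted 1 h at room temperature.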

human JAK2 = biological target: T2, human JAK2 (Homo sapiens, UniProt O60674); assay: In Vitro JAK Kinase Assay (HTRF, phosphorylation of a biotinylated peptide), JAK2; assay type: biochemical; settings: assay of Example A
T2 construct: JAK2 (a.a. 828-1132); His tag (N); made in house; host or cells: insect cells (baculovirus)
Procedure, shortened: as §1

T2 sequence (O60674 828-1132): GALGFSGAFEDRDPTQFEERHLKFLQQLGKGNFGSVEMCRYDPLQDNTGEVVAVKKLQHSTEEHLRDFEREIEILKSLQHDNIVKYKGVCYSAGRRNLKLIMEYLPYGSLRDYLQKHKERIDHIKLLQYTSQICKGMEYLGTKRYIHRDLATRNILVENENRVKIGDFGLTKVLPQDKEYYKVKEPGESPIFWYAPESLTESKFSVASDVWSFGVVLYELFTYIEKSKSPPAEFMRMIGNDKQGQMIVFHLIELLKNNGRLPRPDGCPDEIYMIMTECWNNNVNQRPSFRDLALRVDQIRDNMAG
T1 sequence (P23458 849-1154): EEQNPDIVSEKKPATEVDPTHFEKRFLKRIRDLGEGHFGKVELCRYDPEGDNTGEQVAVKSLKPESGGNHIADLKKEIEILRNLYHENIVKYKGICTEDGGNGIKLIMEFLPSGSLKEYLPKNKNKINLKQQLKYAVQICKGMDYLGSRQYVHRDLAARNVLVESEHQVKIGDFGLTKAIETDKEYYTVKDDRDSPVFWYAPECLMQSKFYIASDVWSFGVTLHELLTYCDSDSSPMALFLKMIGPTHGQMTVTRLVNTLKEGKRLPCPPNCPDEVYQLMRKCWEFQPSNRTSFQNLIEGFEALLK

SMILES | IC50 (human JAK1; Table 4) [nM] | JAK2/JAK1 IC50 ratio (human JAK2; Table 4) | IC50 (human JAK1; Table 5) [nM] | JAK2/JAK1 IC50 ratio (human JAK2; Table 5)
CC(C)(F)c1cc(O[C@H]2CC[C@@H](N3CC(CC#N)(n4cc(-c5ncnc6[nH]ccc56)cn4)C3)CC2)nc(C(F)(F)F)n1.O=C(O)C(F)(F)F.O=C(O)C(F)(F)F [Example 61, {1-(cis-4-{[6-(1-fluoro-1-methylethyl)-2-(trifluoromethyl)pyrimidin-4-yl]oxy}cyclohexyl)-3-[4-(7H-pyrrolo[2,3-d]pyrimidin-4-yl)-1H-pyrazol-1-yl]azetidin-3-yl}acetonitrile bis(trifluoroacetate)] | < 10 | ≧10 |  | 
CC(C)(CO)c1cc(O[C@H]2CC[C@@H](N3CC(CC#N)(n4cc(-c5ncnc6[nH]ccc56)cn4)C3)CC2)nc(C(F)(F)F)n1 [Example 62, {1-(cis-4-{[6-(2-hydroxy-1,1-dimethylethyl)-2-(trifluoromethyl)pyrimidin-4-yl]oxy}cyclohexyl)-3-[4-(7H-pyrrolo[2,3-d]pyrimidin-4-yl)-1H-pyrazol-1-yl]azetidin-3-yl}acetonitrile tris(trifluoroacetate) (salt)] | < 10 | ≧10 |  | 
N#CCC1(n2cc(-c3ncnc4[nH]ccc34)cn2)CN([C@H]2CC[C@@H](Oc3cc(C4(CO)CC4)nc(C(F)(F)F)n3)CC2)C1 [Example 63, {1-(cis-4-{[6-[1-(hydroxymethyl)cyclopropyl]-2-(trifluoromethyl)pyrimidin-4-yl]oxy}cyclohexyl)-3-[4-(7H-pyrrolo[2,3-d]pyrimidin-4-yl)-1H-pyrazol-1-yl]azetidin-3-yl}acetonitrile bis(trifluoroacetate) (salt)] | < 10 | ≧10 |  | 
N#CCC1(n2cc(-c3ncnc4[nH]ccc34)cn2)CN([C@H]2CC[C@@H](Oc3cc(CNC4CC4)cc(C(F)(F)F)n3)CC2)C1 [Example 72, {1-(cis-4-{[4-[(cyclopropylamino)methyl]-6-(trifluoromethyl)pyridin-2-yl]oxy}cyclohexyl)-3-[4-(7H-pyrrolo[2,3-d]pyrimidin-4-yl)-1H-pyrazol-1-yl]azetidin-3-yl}acetonitrile tris(trifluoroacetate)] |  |  | < 20 | ≧10
N#CCC1(n2cc(-c3ncnc4[nH]ccc34)cn2)CN([C@H]2CC[C@@H](Oc3cc(CNCC4CC4)cc(C(F)(F)F)n3)CC2)C1 [Example 76, {1-(cis-4-{[4-{[(cyclopropylmethyl)amino]methyl}-6-(trifluoromethyl)pyridin-2-yl]oxy}cyclohexyl)-3-[4-(7H-pyrrolo[2,3-d]pyrimidin-4-yl)-1H-pyrazol-1-yl]azetidin-3-yl}acetonitrile tris(trifluoroacetate)] |  |  | < 10 | ≧10
N#CCC1(n2cc(-c3ncnc4[nH]ccc34)cn2)CN([C@H]2CC[C@@H](Oc3cc(CNC4CCC4)cc(C(F)(F)F)n3)CC2)C1 [Example 77, {1-(cis-4-{[4-[(cyclobutylamino)methyl]-6-(trifluoromethyl)pyridin-2-yl]oxy}cyclohexyl)-3-[4-(7H-pyrrolo[2,3-d]pyrimidin-4-yl)-1H-pyrazol-1-yl]azetidin-3-yl}acetonitrile tris(trifluoroacetate)] |  |  | < 10 | ≧10
N#CCC1(n2cc(-c3ncnc4[nH]ccc34)cn2)CN([C@H]2CC[C@@H](Oc3cc(CN4CCC4)cc(C(F)(F)F)n3)CC2)C1 [Example 78, {1-(cis-4-{[4-(azetidin-1-ylmethyl)-6-(trifluoromethyl)pyridin-2-yl]oxy}cyclohexyl)-3-[4-(7H-pyrrolo[2,3-d]pyrimidin-4-yl)-1H-pyrazol-1-yl]azetidin-3-yl}acetonitrile tris(trifluoroacetate)] |  |  | < 10 | ≧10
N#CCC1(n2cc(-c3ncnc4[nH]ccc34)cn2)CN([C@H]2CC[C@@H](Oc3cc(CN4CC(O)C4)cc(C(F)(F)F)n3)CC2)C1 [Example 79, {1-(cis-4-{[4-[(3-hydroxyazetidin-1-yl)methyl]-6-(trifluoromethyl)pyridin-2-yl]oxy}cyclohexyl)-3-[4-(7H-pyrrolo[2,3-d]pyrimidin-4-yl)-1H-pyrazol-1-yl]azetidin-3-yl}acetonitrile tris(trifluoroacetate)] |  |  | < 10 | ≧10
CNC(=O)c1cc(O[C@H]2CC[C@@H](N3CC(CC#N)(n4cc(-c5ncnc6[nH]ccc56)cn4)C3)CC2)nc(C(F)(F)F)c1 [Example 80, 2-[(cis-4-{3-(cyanomethyl)-3-[4-(7H-pyrrolo[2,3-d]pyrimidin-4-yl)-1H-pyrazol-1-yl]azetidin-1-yl}cyclohexyl)oxy]-N-methyl-6-(trifluoromethyl)isonicotinamide bis(trifluoroacetate)] |  |  | < 10 | ≧10

Continued, values first:

IC50 (human JAK1; Table 4) [nM] | JAK2/JAK1 IC50 ratio (human JAK2; Table 4) | IC50 (human JAK1; Table 5) [nM] | JAK2/JAK1 IC50 ratio (human JAK2; Table 5) | SMILES
 |  | < 10 | ≧10 | N#CCC1(n2cc(-c3ncnc4[nH]ccc34)cn2)CN([C@H]2CC[C@@H](Oc3cc(CO)cc(C(F)(F)F)n3)CC2)C1 [Example 64, {1-(cis-4-{[4-(hydroxymethyl)-6-(trifluoromethyl)pyridin-2-yl]oxy}cyclohexyl)-3-[4-(7H-pyrrolo[2,3-d]pyrimidin-4-yl)-1H-pyrazol-1-yl]azetidin-3-yl}acetonitrile bis(trifluoroacetate)]
 |  | < 10 | ≧10 | CCNCc1cc(O[C@H]2CC[C@@H](N3CC(CC#N)(n4cc(-c5ncnc6[nH]ccc56)cn4)C3)CC2)nc(C(F)(F)F)c1 [Example 65, {1-(cis-4-{[4-[(ethylamino)methyl]-6-(trifluoromethyl)pyridin-2-yl]oxy}cyclohexyl)-3-[4-(7H-pyrrolo[2,3-d]pyrimidin-4-yl)-1H-pyrazol-1-yl]azetidin-3-yl}acetonitrile tris(trifluoroacetate)]
 |  | < 10 | ≧10 | N#CCC1(n2cc(-c3ncnc4[nH]ccc34)cn2)CN([C@H]2CC[C@@H](Oc3cc(CN)cc(C(F)(F)F)n3)CC2)C1 [Example 66, {1-(cis-4-{[4-(aminomethyl)-6-(trifluoromethyl)pyridin-2-yl]oxy}cyclohexyl)-3-[4-(7H-pyrrolo[2,3-d]pyrimidin-4-yl)-1H-pyrazol-1-yl]azetidin-3-yl}acetonitrile tris(trifluoroacetate)]
 |  | < 10 | ≧10 | CNCc1cc(O[C@H]2CC[C@@H](N3CC(CC#N)(n4cc(-c5ncnc6[nH]ccc56)cn4)C3)CC2)nc(C(F)(F)F)c1 [Example 67, {1-(cis-4-{[4-[(methylamino)methyl]-6-(trifluoromethyl)pyridin-2-yl]oxy}cyclohexyl)-3-[4-(7H-pyrrolo[2,3-d]pyrimidin-4-yl)-1H-pyrazol-1-yl]azetidin-3-yl}acetonitrile tris(trifluoroacetate)]
 |  | < 10 | ≧10 | CN(C)Cc1cc(O[C@H]2CC[C@@H](N3CC(CC#N)(n4cc(-c5ncnc6[nH]ccc56)cn4)C3)CC2)nc(C(F)(F)F)c1 [Example 68, {1-(cis-4-{[4-[(dimethylamino)methyl]-6-(trifluoromethyl)pyridin-2-yl]oxy}cyclohexyl)-3-[4-(7H-pyrrolo[2,3-d]pyrimidin-4-yl)-1H-pyrazol-1-yl]azetidin-3-yl}acetonitrile tris(trifluoroacetate)]
 |  | < 10 | ≧10 | CC(C)(O)c1cc(O[C@H]2CC[C@@H](N3CC(CC#N)(n4cc(-c5ncnc6[nH]ccc56)cn4)C3)CC2)nc(C(F)(F)F)c1 [Example 69, {1-(cis-4-{[4-(1-hydroxy-1-methylethyl)-6-(trifluoromethyl)pyridin-2-yl]oxy}cyclohexyl)-3-[4-(7H-pyrrolo[2,3-d]pyrimidin-4-yl)-1H-pyrazol-1-yl]azetidin-3-yl}acetonitrile bis(trifluoroacetate)]
 |  | < 10 | ≧10 | N#CCC1(n2cc(-c3ncnc4[nH]ccc34)cn2)CN([C@H]2CC[C@@H](Oc3cc(CNCCCO)cc(C(F)(F)F)n3)CC2)C1 [Example 70, {1-(cis-4-{[4-{[(3-hydroxypropyl)amino]methyl}-6-(trifluoromethyl)pyridin-2-yl]oxy}cyclohexyl)-3-[4-(7H-pyrrolo[2,3-d]pyrimidin-4-yl)-1H-pyrazol-1-yl]azetidin-3-yl}acetonitrile tris(trifluoroacetate)]
 |  | < 10 | ≧10 | C[C@@H](CO)NCc1cc(O[C@H]2CC[C@@H](N3CC(CC#N)(n4cc(-c5ncnc6[nH]ccc56)cn4)C3)CC2)nc(C(F)(F)F)c1 [Example 73, {1-(cis-4-{[4-({[(1S)-2-hydroxy-1-methylethyl]amino}methyl)-6-(trifluoromethyl)pyridin-2-yl]oxy}cyclohexyl)-3-[4-(7H-pyrrolo[2,3-d]pyrimidin-4-yl)-1H-pyrazol-1-yl]azetidin-3-yl}acetonitrile tris(trifluoroacetate)]
 |  | < 10 | ≧10 | N#CCC1(n2cc(-c3ncnc4[nH]ccc34)cn2)CN([C@H]2CC[C@@H](Oc3cc(CNCCO)cc(C(F)(F)F)n3)CC2)C1 [Example 74, {1-(cis-4-{[4-{[(2-hydroxyethyl)amino]methyl}-6-(trifluoromethyl)pyridin-2-yl]oxy}cyclohexyl)-3-[4-(7H-pyrrolo[2,3-d]pyrimidin-4-yl)-1H-pyrazol-1-yl]azetidin-3-yl}acetonitrile tris(trifluoroacetate)]
 |  | < 10 | ≧10 | C[C@H](CO)NCc1cc(O[C@H]2CC[C@@H](N3CC(CC#N)(n4cc(-c5ncnc6[nH]ccc56)cn4)C3)CC2)nc(C(F)(F)F)c1 [Example 75, {1-(cis-4-{[4-({[(1R)-2-hydroxy-1-methylethyl]amino}methyl)-6-(trifluoromethyl)pyridin-2-yl]oxy}cyclohexyl)-3-[4-(7H-pyrrolo[2,3-d]pyrimidin-4-yl)-1H-pyrazol-1-yl]azetidin-3-yl}acetonitrile tris(trifluoroacetate)]
